Measured values as given in US20250230166A1, “OXADIAZOLE HDAC6 INHIBITORS AND USES THEREOF” (Eikonizo Therapeutics, Inc., priority 2022, published 2025).

Biological target: T1, Full length Human HDAC6 (Homo sapiens, UniProt Q9UBN7)
T1 construct: Full length Human HDAC6; FLAG (C); host or cells: baculovirus expression system
T1 sequence (Q9UBN7 1-1215): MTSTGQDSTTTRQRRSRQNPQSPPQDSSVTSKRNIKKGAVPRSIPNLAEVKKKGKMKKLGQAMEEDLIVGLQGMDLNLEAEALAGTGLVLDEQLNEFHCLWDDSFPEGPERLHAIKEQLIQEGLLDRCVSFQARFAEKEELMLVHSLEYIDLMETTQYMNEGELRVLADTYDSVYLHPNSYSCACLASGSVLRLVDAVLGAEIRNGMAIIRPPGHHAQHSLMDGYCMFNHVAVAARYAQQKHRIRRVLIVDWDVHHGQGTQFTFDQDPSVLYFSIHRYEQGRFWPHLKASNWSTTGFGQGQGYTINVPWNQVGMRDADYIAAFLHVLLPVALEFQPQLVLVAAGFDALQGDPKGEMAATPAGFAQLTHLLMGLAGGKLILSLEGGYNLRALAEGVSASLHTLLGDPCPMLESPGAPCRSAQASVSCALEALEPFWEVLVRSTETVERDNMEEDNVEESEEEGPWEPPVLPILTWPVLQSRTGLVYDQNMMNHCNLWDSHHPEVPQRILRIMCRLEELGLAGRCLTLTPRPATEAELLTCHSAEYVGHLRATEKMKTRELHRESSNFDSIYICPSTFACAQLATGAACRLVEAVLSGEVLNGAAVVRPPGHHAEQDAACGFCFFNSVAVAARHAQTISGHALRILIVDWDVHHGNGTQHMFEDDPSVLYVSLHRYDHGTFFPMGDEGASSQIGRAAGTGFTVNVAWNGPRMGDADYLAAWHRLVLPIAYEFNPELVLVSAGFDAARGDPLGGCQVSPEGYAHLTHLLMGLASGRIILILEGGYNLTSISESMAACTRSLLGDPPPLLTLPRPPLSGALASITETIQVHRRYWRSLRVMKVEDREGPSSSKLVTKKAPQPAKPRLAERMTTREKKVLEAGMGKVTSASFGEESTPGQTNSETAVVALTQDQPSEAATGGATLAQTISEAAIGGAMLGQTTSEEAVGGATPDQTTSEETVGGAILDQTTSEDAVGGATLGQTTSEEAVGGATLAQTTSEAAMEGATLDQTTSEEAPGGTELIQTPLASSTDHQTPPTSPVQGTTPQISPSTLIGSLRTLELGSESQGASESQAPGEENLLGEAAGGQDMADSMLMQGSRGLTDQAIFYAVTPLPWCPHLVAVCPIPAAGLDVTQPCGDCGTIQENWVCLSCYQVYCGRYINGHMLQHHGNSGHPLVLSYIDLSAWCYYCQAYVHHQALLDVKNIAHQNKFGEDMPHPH
Assay: In vitro HDAC6 enzymatic activity (Caliper endpoint assay or Nanosyn fluorogenic format)
Type: biochemical
Conditions: 30 min pre-incubation with enzyme

SMILES | IC50 [nM]
FC(F)c1nnc(-c2ccc(COc3cccc4ncccc34)nc2)o1 [Compound 63, 2-(difluoromethyl)-5-[6-(5-quinolyloxymethyl)-3-pyridyl]-1,3,4-oxadiazole] | 1 to 100
FC(F)c1nnc(-c2ccc(COc3ccc4cccnc4c3)nc2)o1 [Compound 34, 2-(difluoromethyl)-5-[6-(7-quinolyloxymethyl)-3-pyridyl]-1,3,4-oxadiazole] | 1 to 100
